Usually MIC stands for the smallest concentration in the dilution series that meets the test's criterion for growth inhibition.

The subject of the test is Staphylococcus aureus. Briefly: Growth inhibition (MIC) in RPMI 1640, Staphylococcus aureus. In kind it is cell-based. The note with it: method of Example 6, read-out: MIC for S. aureus. Here is the method:
Chelating compositions were assessed for their biological activity in vitro by determination of their growth inhibitory activity for Staphylococcus aureus (strain 038, a clinical isolate from a corneal infection obtained from Dr. Mark Wilcox, University New South Wales, Australia or strain ATCC 43300, a prototypical clinical isolate and reference strain obtained from the American Type Culture Collection) and Candida albicans (SC5314, a prototypical clinical isolate and reference strain obtained from the American Type Culture Collection or strain 3969 a clinical isolate obtained from the Queen Elizabeth II hospital, Halifax, Canada). The microorganisms were grown in RPMI 1640 culture medium and tested in fresh aliquots of RPMI 1640 medium or in medium that had been partially deferrated by the method of Holbein and Mira (Holbein B. E, Mira de Orduña R. 2010, FEMS Microbiol Lett. 307(1):19-24, herein incorporated by reference) to allow testing at low Fe levels or with iron re-added at known concentrations to this deferrated medium. Growth at 30° C. was measured by optical density when the test samples were incubated in tubes or visually when growth was tested in microtitre dish wells. […]

Values after ≈ are worked out from the molar mass of the structure shown.

In the case of `C=C(C)C(=O)NCCn1ccc(=O)c(O)c1C` [MAHMP, 3-hydroxy-1-(β-methacrylamidoethyl)-2-methyl-4(1H)-pyridinone], the MIC stood at 125 µg/mL (≈ 529 µM).

Values taken from patent US12024490B2, “Polymeric metal chelating compositions and methods of preparing same for controlling growth and activities of living cells and organisms for therapeutic use in treating diseases in animals, fish or humans” (CHELATION PARTNERS INCORPORATED, priority 2016, dated 2024).
